# Data published in patent US5679648A, “Methods for the treatment and prevention of fungal infections by administration of 3'-deoxypurine nucleosides” (The University Hospital, priority 1994, dated 1997).
# Like-named read-outs stand apart in the source and are kept apart here.
# Legend:
# A. fumigatus = experiment: MIC of 3'-deoxynucleosides in cell cultures (microtiter plates, 24 hours); assay type: cell-based; details: Aspergillus fumigatus
# Description: (§1) Cell cultures of various organisms were established in microtiter plates and maintained for a period of 24 hours after the addition of a 3'-deoxynucleoside (3'-dA, 3'-dG, 3'-dC, 3'-dU) (Calbiochem; San Diego, Calif.; Fluka Chemical; Ronkonkoma, N.Y.; Pharmacia Biotech; Piscataway, N.J.) or amphotericin B in μg/ml (Sigma Chemical; St. Louis, Mo.) as control.
# C. albicans = experiment: as above; assay type: cell-based; details: Candida albicans
# Description: as §1
# C. neoformans = experiment: as above; assay type: cell-based; details: Cryptococcus neoformans
# Description: as §1
# C. tropicalis = experiment: as above; assay type: cell-based; details: Candida tropicalis
# Description: as §1
# Rhizopus = experiment: as above; assay type: cell-based
# Description: as §1
# Candida albicans [1] = experiment: Mortality in Candida albicans infected mice; assay type: in vivo; details: ICR mice, 10^6 cfu C. albicans; for Survival After 25 Days: 10 days i.p.: 3'-deoxyadenosine 1.5, deoxycoformycin 0.4, amphotericin B 1.0 mg/kg/day, n=10, control 40%; for Survival After 15 Days: second experiment, 10 days i.p., same doses, n=8, control 0%
# Description: Halen Sprague Dawley ICR mice were injected is with approximately 10^6 cfu of Candida albicans. Twenty-four hours after injection, mice were treated for 10 days with the indicated agents: 3'-deoxyadenosine (Sigma Chemical; St. Louis, Mo.) at 1.5 mg/kg/day i.p., deoxycoformycin (Sigma Chemical; St. Louis, Mo.) at 0.4 mg/kg/day i.p., amphotericin B (Sigma Chemical; St. Louis, Mo.) at 1.0 mg/kg/day i.p. Survival after 25 days is shown in Tables 2 and 3.
# Candida albicans [2] = experiment: Time to reach LD50 in Candida albicans infected mice; assay type: in vivo; details: ICR mice, 10^6 cfu C. albicans; 10 days i.p.: 3'-deoxyadenosine 1.5, deoxycoformycin 0.4, amphotericin B 1.0 mg/kg/day; control 6
# Description: Halen Sprague Dawley ICR mice were injected with approximately 10^6 cfu Candida albicans and treated for 10 days with the following agents: 3'-deoxyadenosine (Sigma Chemical; St. Louis, Mo.) at 1.5 mg/kg/day i.p., deoxycoformycin (Sigma Chemical; St. Louis, Mo.) at 0.4 mg/kg/day i.p., amphotericin B (Sigma Chemical; St. Louis, Mo.) at 1.0 mg/kg/day i.p. Time in days to reach LD50 is shown in Table 4.
# 8402 cells = experiment: Cytotoxicity to neoplastic cells in tissue culture; assay type: cell-based; details: 8402 (TdT-positive), in the presence of coformycin; read-out: cytotoxic IC50
# Description: (§2) Cell lines were maintained in FCS/DMEM (GIBCO/BRL; Grand Island, N.Y.) at 37° C. with 5% CO2 and treated with cordycepin, coformycin or cordycepin plus coformycin, or remain untreated as controls. In the presence of coformycin, cordycepin was specifically cytotoxic at IC50 of less than 0.5 μM for the TdT-positive cells NALM-6, HPB-ALL, MOLT-4, CEM and 8402 cells. […] The earliest manifestations of cytotoxic damage by cordycepin in TdT (terminal deoxynudeotidyl tranferase)-positive cells was the emergence of classic features of apoptosis such as membrane blebbing, volume loss, chromatin clumping and inter-nucleosomal DNA digestion into 180 base pair (bp) multiples. In contrast, the cytotoxic damage seen when TdT-negative cells are exposed to high levels (greater than 5.0 μM) of cordycepin is associated with random DNA breakdown and necrosis. Since apoptosis in normal TdT-positive thymocytes is stimulated by protein kinase A (PK-A) activity, and inhibited by protein kinase C (PK-C) activity, PK-A and PK-C activities were measured in TdT-positive and TdT-negative cell lines after exposure to cordycepin.
# CEM = experiment: Cytotoxicity to neoplastic cells in tissue culture; assay type: cell-based; details: CEM (TdT-positive), in the presence of coformycin; read-out: cytotoxic IC50
# Description: as §2
# HPB-ALL = experiment: Cytotoxicity to neoplastic cells in tissue culture; assay type: cell-based; details: HPB-ALL (TdT-positive), in the presence of coformycin; read-out: cytotoxic IC50
# Description: as §2
# MOLT-4 = experiment: Cytotoxicity to neoplastic cells in tissue culture; assay type: cell-based; details: MOLT-4 (TdT-positive), in the presence of coformycin; read-out: cytotoxic IC50
# Description: as §2
# NALM-6 = experiment: Cytotoxicity to neoplastic cells in tissue culture; assay type: cell-based; details: NALM-6 (TdT-positive), in the presence of coformycin; read-out: cytotoxic IC50
# Description: as §2
# protein kinase A (PK-A) = experiment: PK-A activity in TdT-positive and TdT-negative cell lines after exposure; assay type: cell-based
# Description: (§3) Cell lines were maintained in FCS/DMEM (GIBCO/BRL; Grand Island, N.Y.) at 37° C. with 5% CO2 and treated with cordycepin, coformycin or cordycepin plus coformycin, or remain untreated as controls. […] Since apoptosis in normal TdT-positive thymocytes is stimulated by protein kinase A (PK-A) activity, and inhibited by protein kinase C (PK-C) activity, PK-A and PK-C activities were measured in TdT-positive and TdT-negative cell lines after exposure to cordycepin.
# protein kinase C (PK-C) = experiment: PK-C activity in TdT-positive and TdT-negative cell lines after exposure; assay type: cell-based
# Description: as §3
# [3] = A. fumigatus, 24 hours, read-out: MIC
# [4] = C. albicans, 24 hours, read-out: MIC
# [5] = C. neoformans, 24 hours, read-out: MIC
# [6] = C. tropicalis, 24 hours, read-out: MIC
smiles,measurement,setting,value
"Nc1ncnc2c1ncn2[C@@H]1O[C@H](CO)C[C@H]1O [3'-dA, 3'-deoxyadenosine]",MIC,A. fumigatus; [3],5 µM
same,MIC,C. albicans; [4],20 µM
same,MIC,C. neoformans; [5],20 µM
same,MIC,C. tropicalis; [6],20 µM
same,MIC,"Rhizopus; 24 hours, read-out: MIC",> 20 µM
same,Survival After 25 Days,Candida albicans [1],30%
same,Survival After 15 Days,Candida albicans [1],37.5%
same,Days to Reach LD50,Candida albicans [2],9.5 days
same,IC50,8402 cells,< 0.5 µM
same,IC50,CEM,< 0.5 µM
same,IC50,HPB-ALL,< 0.5 µM
same,IC50,MOLT-4,< 0.5 µM
same,IC50,NALM-6,< 0.5 µM
same,PK-A activity change,protein kinase A (PK-A); TdT-negative cells,unchanged
same,PK-A activity increase,"protein kinase A (PK-A); TdT-positive cells, within 2 hours of exposure",8-10 fold
same,PK-C activity change,protein kinase C (PK-C); TdT-negative cells,unchanged
same,PK-C activity change,protein kinase C (PK-C); TdT-positive cells,unchanged
OC[C@H]1O[C@@H](n2cnc3c2NC=NC[C@H]3O)C[C@@H]1O [deoxycoformycin],Survival After 25 Days,Candida albicans [1],30%
same,Survival After 15 Days,Candida albicans [1],25.0%
same,Days to Reach LD50,Candida albicans [2],5 days
Nc1ccn([C@@H]2O[C@H](CO)C[C@H]2O)c(=O)n1 [3'-dC],MIC,A. fumigatus; [3],20 µM
same,MIC,C. albicans; [4],> 20 µM
same,MIC,C. neoformans; [5],> 20 µM
same,MIC,C. tropicalis; [6],> 20 µM
same,MIC,"Rhizopus; 24 hours, read-out: MIC",> 20 µM
O=c1ccn([C@@H]2O[C@H](CO)C[C@H]2O)c(=O)[nH]1 [3'-dU],MIC,A. fumigatus; [3],> 20 µM
same,MIC,C. albicans; [4],> 20 µM
same,MIC,C. neoformans; [5],> 20 µM
same,MIC,C. tropicalis; [6],> 20 µM
same,MIC,"Rhizopus; 24 hours, read-out: MIC",> 20 µM
"C[C@@H]1[C@H](O)[C@@H](C)/C=C/C=C/C=C/C=C/C=C/C=C/C=C/[C@H](O[C@@H]2O[C@H](C)[C@@H](O)[C@H](N)[C@@H]2O)C[C@@H]2O[C@](O)(C[C@@H](O)C[C@@H](O)[C@H](O)CC[C@@H](O)C[C@@H](O)CC(=O)O[C@H]1C)C[C@H](O)[C@H]2C(=O)O [Amphotericin B, amphotericin B]",MIC,A. fumigatus; 24 h,1.25 µg/mL
same,MIC,C. albicans; 24 h,< 0.6 µg/mL
same,MIC,C. neoformans; 24 h,2.5 µg/mL
same,MIC,C. tropicalis; 24 h,1.25 µg/mL
same,MIC,Rhizopus; 24 h,2.5 µg/mL
same,Survival After 25 Days,Candida albicans [1],90%
same,Survival After 15 Days,Candida albicans [1],50.0%
same,Days to Reach LD50,Candida albicans [2],> 30 days
Nc1nc2c(ncn2[C@@H]2O[C@H](CO)C[C@H]2O)c(=O)[nH]1 [3'-dG],MIC,A. fumigatus; [3],> 20 µM
same,MIC,C. albicans; [4],> 20 µM
same,MIC,C. neoformans; [5],> 20 µM
same,MIC,C. tropicalis; [6],> 20 µM
same,MIC,"Rhizopus; 24 hours, read-out: MIC",> 20 µM
